Entries after “also recorded” stand apart in the source; their conditions may differ.
Legend:
NKp46D2-Ig [1] = biological target: T1, NKp46D2-Ig (Homo sapiens, UniProt O76036); experiment: Inhibition of NKp46D2-Ig binding to tumor cells by premixed saccharides (flow cytometry); details: for Inhibition of binding of NKp46D2-Ig to tumor cells: cell line not specified; for Inhibition of binding of NKp46D2-Ig: HeLa and PC-3, FIGS. 2B, 2C
T1 construct: residues 101-235 (D2) of the mature NKp46 protein were PCR amplified; CD5 leader peptide (with added Met start codon) (N); made in house
T1 sequence (O76036 with tags, fused parts or gaps isoform O76036-6): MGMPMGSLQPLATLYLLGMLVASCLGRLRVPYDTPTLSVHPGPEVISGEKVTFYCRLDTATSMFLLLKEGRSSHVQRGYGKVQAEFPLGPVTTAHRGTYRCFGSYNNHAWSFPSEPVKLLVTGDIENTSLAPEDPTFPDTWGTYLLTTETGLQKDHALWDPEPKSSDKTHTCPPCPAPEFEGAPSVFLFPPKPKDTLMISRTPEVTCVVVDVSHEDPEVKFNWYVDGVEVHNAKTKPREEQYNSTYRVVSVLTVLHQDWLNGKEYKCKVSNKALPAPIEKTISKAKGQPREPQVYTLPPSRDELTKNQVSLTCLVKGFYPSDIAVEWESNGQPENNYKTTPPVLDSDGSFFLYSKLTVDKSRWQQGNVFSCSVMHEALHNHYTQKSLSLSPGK
Method: (§1) Cells were incubated with the various fusion-Igs for 2 h at 4° C., washed and stained with FITC-conjugated-F(ab′)2-Goat-anti-human-IgG-Fcy (109-096-098, Jackson ImmunoResearch, West Grove, Pa.). Staining and washing buffer consisted of 0.5% (w/v) BSA and 0.05% sodium azide in PBS. Staining of CHO and mutant CHO cells was carried out with 2% FCS instead of bovine serum albumin (BSA) in the different buffers. Propidium iodide (PI) was added prior to reading for exclusion of dead cells. Flow cytometry was performed using a FACSCalibur flow cytometer (Becton Dickinson, Mountain View, Calif.). Data files were acquired and analyzed using BD CELLQuest™ 3.3 software.
(§2) For most binding inhibition experiments, 20 μg of fusion-Ig were premixed with the GAG and added to cells for staining as above. In all experiments, each sample was stained twice in different wells. When results are presented as MFI (median fluorescence intensity), average MFI∓SD of the duplicate staining is shown to reveal consistency of staining procedure. Human IgG1 (hIgG1 kappa, PHP010) was purchased from Serotec, Oxford, UK. Staining with the anti-heparin/heparan sulfate antibody HS4E4 was previously described (35).

NKp30-Ig [2] = biological target: T2, NKp30-Ig (Homo sapiens, UniProt O14931); experiment: Inhibition of NKp30-Ig binding to tumor cells by premixed saccharides (flow cytometry); details: cell line not specified
T2 construct: made in house
T2 sequence (O14931 with tags, fused parts or gaps P25L): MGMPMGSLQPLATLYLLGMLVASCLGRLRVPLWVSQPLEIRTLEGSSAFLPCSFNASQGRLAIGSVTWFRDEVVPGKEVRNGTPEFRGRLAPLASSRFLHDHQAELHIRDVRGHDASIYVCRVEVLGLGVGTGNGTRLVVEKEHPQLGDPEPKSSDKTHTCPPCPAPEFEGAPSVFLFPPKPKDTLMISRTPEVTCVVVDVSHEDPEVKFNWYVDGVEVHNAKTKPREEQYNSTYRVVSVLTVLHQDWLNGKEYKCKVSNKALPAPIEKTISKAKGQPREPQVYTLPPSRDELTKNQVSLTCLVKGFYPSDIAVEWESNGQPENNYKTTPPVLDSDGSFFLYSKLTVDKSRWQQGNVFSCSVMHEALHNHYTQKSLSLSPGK
Method: as §1, §2

HeLa cells [3] = experiment: Lysis of HeLa cells by primary NK lines (cytotoxicity assay); type: cell-based, human; details: FIG. 6A
Method: The cytotoxic activity of NK lines against the various targets was assessed in 5-hr 35S-release assays and in 4-hr Eu release time-resolved fluorescence assays, as previously described (20). In experiments where carbohydrates were included, NK cells were first mixed with the carbohydrates and then added to target cells. […] Each point represents the average of duplicate/triplicate values.
To test the role of NKp46 and NKp30 recognition of carbohydrates in NK lysis, the lysis of HeLa cells by NKs in the presence of Glyc-PAA was studied.

NKp30-Ig [4] = biological target: T3, NKp30-Ig (Homo sapiens, UniProt O14931, P25L); experiment: Inhibition of NKp30-Ig binding to tumor cells by premixed saccharides (flow cytometry)
T3 construct: made in house
T3 sequence (O14931 with tags, fused parts or gaps P25L): as above
Method: as §1, §2

LIR1-Ig = biological target: T4, LIR1-Ig (Homo sapiens, UniProt Q8NHL6); experiment: Effect of premixed saccharides on LIR1-Ig binding to HeLa cells (flow cytometry); details: Glyc-PAA mixed with Ig-fusion protein, FIG. 1A
T4 construct: made in house
T4 sequence (Q8NHL6 with tags, fused parts or gaps limits assumed): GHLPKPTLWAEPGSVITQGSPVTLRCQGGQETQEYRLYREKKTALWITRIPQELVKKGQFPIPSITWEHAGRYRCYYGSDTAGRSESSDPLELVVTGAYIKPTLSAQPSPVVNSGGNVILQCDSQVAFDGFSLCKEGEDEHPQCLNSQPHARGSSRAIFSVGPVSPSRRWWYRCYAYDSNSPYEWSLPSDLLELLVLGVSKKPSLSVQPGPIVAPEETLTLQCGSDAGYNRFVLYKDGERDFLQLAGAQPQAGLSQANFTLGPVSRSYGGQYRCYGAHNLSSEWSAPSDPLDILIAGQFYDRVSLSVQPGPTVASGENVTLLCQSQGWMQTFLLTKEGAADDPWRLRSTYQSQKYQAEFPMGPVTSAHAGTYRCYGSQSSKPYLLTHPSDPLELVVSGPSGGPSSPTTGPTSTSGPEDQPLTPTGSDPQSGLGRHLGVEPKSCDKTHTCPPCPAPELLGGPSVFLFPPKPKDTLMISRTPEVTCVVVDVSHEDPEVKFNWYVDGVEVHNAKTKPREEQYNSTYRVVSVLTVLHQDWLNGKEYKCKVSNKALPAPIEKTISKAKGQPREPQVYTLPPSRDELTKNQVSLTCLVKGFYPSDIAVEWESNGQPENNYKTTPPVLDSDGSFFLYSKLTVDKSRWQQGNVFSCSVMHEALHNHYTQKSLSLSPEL
Method: as §1, §2

NKp46D2-Ig [5] = experiment: Treatment of tumor cells (GAG-degrading enzymes, glycosylation or GPI-anchor blockers) then staining with NKp46D2-Ig; type: cell-based, human
Method: as §1
(§3) Tumor cells (10^6) were washed twice in PBS, resuspended in 1ml reaction buffer alone (mock) or reaction buffer containing one of the following GAG-degrading enzymes (Sigma): keratanase (0.94 u/ml, K-2876), heparin lyase I (1.56 u/ml, H-2519) and heparin lyase III (1.25 u/ml, H-8891). Reaction buffer consisted of 1% (w/v) BSA, 1 μg/ml leupeptin and 10 u/ml aprotinin in PBS. Cells were incubated with enzyme for 60 min at 37° C., washed two times with PBS and stained with fusion-Igs as above.
(§4) The involvement of cell membrane-associated GAGs in the binding of NKp46D2-Ig and NKp30-Ig to their cellular ligands was examined. […]

NKp30-Ig [6] = experiment: Treatment of tumor cells (GAG-degrading enzymes, glycosylation or GPI-anchor blockers) then staining with NKp30-Ig; type: cell-based, human
Method: as §1, §3, §4

IV-infected cells = experiment: Binding of wild type and mutated NKp46D2 fusion proteins to IV-infected cells; details: FIG. 10
Method: as §1
Based on the observations described above, certain site-directed mutations were made in NKp46D2 (Lys 157, Arg 160, His 163 and Arg 166; 4 point mutations) or (Lys 157, Arg 160, His 163, Arg 166, and Lys 170; 5 point mutations) into hydrophilic, neutral, amino acids with residues of similar size and to compare the ability of the mutant and the wild type receptors to bind heparin/heparan sulfate. Two constructs were prepared: Q4 (K157Q, R160Q, H163Q, and R166Q) and Q4T1 (K157Q, R160Q, H163Q, R166Q, and K170T). The mutated referred to herein as SEQ ID NO:29 SEQ ID NO:30.. Corresponding fusion proteins were prepared (NKp46D2-Q4-Ig and NKp46D2-Q4T1-Ig) and compared to NKp46D2-Ig.

[7] = system: mutant CHO cells lacking HSPG; experiment: Binding to mutant CHO cells lacking HSPG; details: as compared to wt CHO cells; FIG. 7A
Method: as §1
To further test the role of NKp46 and NKp30 recognition of carbohydrates in NK lysis, the lysis of CHO mutants lacking HSPG was examined. […] Thus, reduction in binding of NKp46-D2-Ig and NKp30-Ig to tumor cells lacking HSPG is correlated with reduced lysis of these cells by NK cells.

EB-SP = experiment: Staining of EB-SP cells expressing cell-surface heparanase with fusion-Igs; type: binding, murine; details: as compared to parental EB or EB-mock transfected
Method: as §1
The EB T lymphoma cell line and EB-SP cells that express a functional heparanase on the cell surface (16) were stained with NKp46D2-Ig. […] An alternative interpretation is that the binding is to a cell-surface molecule associated with heparan sulfate. […] Membrane-associated heparan sulfate proteoglycans (HSPGs) can be divided into two families: glypicans, which are attached to the plasma membrane via glycosylphosphatidylinositol (GPI) anchors, and syndecans, which are transmembrane proteins (23). The involvement of GPI-anchored proteins in the binding of NKp30-Ig and NKp46D2-Ig to tumor cells was examined. Treatment of cells with D-mannosamine (white bars) inhibits GPI-anchor formation.

HeLa cells [8] = experiment: Staining of HeLa cells with fusion-Igs (flow cytometry); type: binding, human
Method: as §1

[9] = Glyc-PAA mixed with Ig-fusion protein, HeLa cells, FIG. 1A
[10] = Glyc-PAA premix, inconsistent inhibition phenotype
[11] = HeLa cells pretreated with 40mM D-mannosamine overnight, FIG. 4D
[12] = tumor cells treated before staining

3′-O-sulfo-LacNAc
Inhibition of binding of NKp46D2-Ig to tumor cells (NKp46D2-Ig [1]): did not inhibit binding
Inhibition of binding of NKp30-Ig to tumor cells (NKp30-Ig [2]): did not inhibit binding

4 ′, 6′-di-O-sulfo-LacNAc
Inhibition of binding of NKp46D2-Ig to tumor cells (NKp46D2-Ig [1]): did not inhibit binding
Inhibition of binding of NKp30-Ig to tumor cells (NKp30-Ig [2]): did not inhibit binding

6-O-sulfo-LacNAc-PAA
Reduction of lysis of HeLa cells by NK (HeLa cells [3]; 0.9 mM): significant reduction of lysis
Reduction of lysis of HeLa cells by NK (HeLa cells [3]; agent present during lysis assay, Glyc-PAA 0.225 to 0.9 mM, E:T 50:1, 4 h): two fold
Inhibition of binding of NKp46D2-Ig to HeLa cells (NKp46D2-Ig [1]; [9]): inhibited binding
Effect on binding of the fusion proteins after pre-incubation of the cells (NKp46D2-Ig [1]; cells pre-incubated with the saccharide, followed by wash and application of the fusion proteins): did not affect the binding
Inhibition of binding of NKp30-Ig to HeLa cells (NKp30-Ig [4]; [9]): inhibited
Inhibition of binding of LIR1-Ig to HeLa cells (LIR1-Ig): not the positive binding of LIR1-Ig

6′-O-sulfo-LacNAc
reduction in binding of NKp46D2-Ig (NKp46D2-Ig [1]; [10]): up to 25%
reduction in binding of NKp30-Ig (NKp30-Ig [4]; [10]): up to 25%

N[C@@H]1C(O)O[C@H](CO)[C@@H](O)[C@@H]1O (stereo partly drawn) [D-mannosamine]
Reduction of binding of NKp46D2-Ig (NKp46D2-Ig [5]; [11]): 4 fold
Reduction of binding of NKp30-Ig (NKp30-Ig [6]; [11]): 2 fold

CC(=O)N[C@H]1[C@@H](OCc2ccccc2)O[C@H](CO)[C@H](O)[C@@H]1O [abenzyl-GalNAc]
Effect of cell treatment on binding of NKp46D2-Ig (NKp46D2-Ig [5]; [12]): significantly reduced the binding
Effect of cell treatment on binding of NKp30-Ig (NKp30-Ig [6]; [12]): significantly reduced the binding

N-desulfated heparin
Inhibition of NKp46D2-Ig binding by modified heparins (NKp46D2-Ig [1]; heparins modified in sulfation or acetylation, HeLa cells, FIG. 2D): potent inhibitor

heparan sulfate
Inhibition of binding of NKp46D2-Ig (NKp46D2-Ig [1]; 0.1 μg/ml): inhibit binding
Inhibition of binding of NKp46D2-Ig to tumor cells (NKp46D2-Ig [1]): directly inhibits the binding; also recorded: potent inhibitors
Inhibition of binding of NKp30-Ig to tumor cells (NKp30-Ig [2]): directly inhibits the binding; also recorded: potent inhibitors

hyaluronic acid
Inhibition of binding of NKp46D2-Ig (NKp46D2-Ig [1]; incremental concentrations up to 10 μg/ml): did not inhibit binding

B1: NKp46D2-Ig: truncated fusion protein: D2 of NKp46 with CD5 leader fused to Fc portion of human IgG1 (protein)
chain: MAWMLLLILIMVHPGSCALWVSQPPEIRTLEGSSAFLPCSFNASQGRLAIGSVTWFRDEVVPGKEVRNGTPEFRGRLAPLASSRFLHDHQAELHIRDVRGHDASIYVCRVEVLGLGVGTGNGTRLVVEKEHPQLGAGTVLLLRAGFYAVSFLSVAVGSTVYYQGKCLTWKGPRRQLPAVVPAPLPPPCGSSAHLLPPVPGG
modifications: homo sapiens
Binding to IV-infected cells (IV-infected cells): bind similarly
Binding to mutant CHO cells lacking HSPG [7]: significantly reduced
Reduction of staining of EB-SP (EB-SP; FIG. 4C): 50%
Binding to HeLa cells (HeLa cells [8]): bound well

B2: NKp30-Ig: protein conjugate comprising CD5 leader sequence and NKp30 D domain fused to Fc domain (protein)
chain: MAWRALHPLLLLLLLFPGSQAQSKAQVLQSVAGQTLTVRCQYPPTGSLYEKKGWCKEASALVCIRLVTSSKPRTMAWTSRFTIWDDPDAGFFTVTMTDLREEDSGHYWCRIYRPSDNSVSKSVRFYLVVSPASASTQTPWTPRDLVSSQTQTQSCVPPTAGARQAPESPSTIPVPSQPQNSTLRPGPAAPIALVPVFCGLLVAKSLVLSALLVWWGDIWWKTVMELRSLDTQKATCHLQQVTDLPWTSVSSPVEREILYHTVARTKISDDDDEHTL
modifications: homo sapiens
Binding to mutant CHO cells lacking HSPG [7]: significantly reduced
Staining of EB-SP compared with EB (EB-SP): same phenotype
Binding to HeLa cells (HeLa cells [8]): bound well
